The test system of series [1] is return activated sludge (RAS) seed microorganisms. As to the kind of experiment: Aerobic respirometry: specific oxygen uptake rate (SOUR) of iron-dosed, heat-dried biosolids. Conditions: for time until SOUR reached below the stable criteria requirement: 1.5% ferrate as iron by TS. How it is done:
Thickened sewage sludge was poured into ster[…] & Bird B-Ker polycarbonate jars with a sampling port for flash mixing and flocculation in amounts of 1 L to 2 L. The ferric chloride/ferrate dose was delivered by syringe to the jar test beakers. The ferric chloride dose was calculated by obtaining the total solids content of the sludge sample first and taking 2% of the result. The ferrate dose was calculated after computing the final synthesized concentration of ferrate in buffer solution. Both the ferrate and ferric chloride doses were based on mass rather than volume. The ferrate solution strength was calculated based on mass instead of volume to minimize errors in the dose calculations; these errors are associated with off-gases from the ferrate solution changing the volume of ferrate within the syringe. Of the six jars, one jar of raw sludge served as the control and five jars were used to test various dosages. The ferric chloride was added first while the sludge samples were mixed at a speed of 300 rpm; after thorough mixing (about 10 minutes), the ferrate was added and the mixture was mixed at 300 rpm for about 10 minutes until thoroughly mixed. Well-mixed sludge was then transferred into centrifuge tubes and centrifuged, and then the settled solids were collected and spread on a baking pan and heat dried for about 30 minutes. Batch respirometer tests were conducted by dosing microbial culture with an amount of organic chemical or wastewater followed by monitoring the reactions through measurement of oxygen uptake in aerobic tests or gas production in anoxic and methanogenic tests. Batch tests are transient, non-steady-state reactions in which both substrate and biomass concentrations change throughout the biodegradation reaction. The procedures generally involve the following steps. A sample of wastewater or solution of test chemicals is placed in each of a number of respirometer vessels. Nutrients and trace minerals are added in amounts sufficient to support biological growth and a buffer is added to maintain the pH within an acceptable range. A seed culture is added to provide microorganisms that can degrade the organic constituents in the test samples. A caustic scrubber is suspended within the headspace of the reaction vessel to absorb carbon dioxide (only in instruments using headspace oxygen transfer), and chemicals are added to inhibit nitrification in cases where only aerobic carbonaceous oxidation reactions are to be monitored. The reaction vessels are attached to a device suitable for measuring oxygen uptake or gas production, and oxygen uptake or gas production is measured over time periods ranging from a few minutes to 90 days, depending on the test objectives. The aerobic conditions of respirometry assessments were designed to simulate the scenario that the treated biosolids were fully seeded with an unlimited oxygen supply. The anaerobic conditions mimicked fully seeded biosolids without oxygen. The return activated sludge from the New Orleans' POTW was used as seed for its already acclimated microorganisms. For the same reasons, the effluent was selected as the dilution water to increased moisture content. After the heat drying process, the product was tested for total solids contents. […] The system was then sealed and set up in a 20° C. water bath for real time monitoring on oxygen uptake for 96 hours. pH and ORP values were assessed at the beginning and the end of the tests. The sludge was thickened to achieve a 5% solids content level. After the addition of ferric chloride, ferrate or both followed by centrifugation, the sludge cake was placed in an oven at 80° C. for 30 minutes to mimic the heat drying process. The dried sludge was then tested for stability by adding 98%-99% of moisture content. There were three exogenous variables: buffer, feed and seed. The buffer was 1.5M KH2PO4 at pH 7.0. […]

Series [2] in a line: ORP of treated heat-dried biosolids. The format is physicochemical. To be noted: post treatment. Here is the method: After the heat drying process, the product was tested for total solids contents. Based on the results, a 2% solution of said product in effluent was made and poured into 600 mL narrow neck glass bottles, along with a seeding of 3000 mg/L for each bottle. The system was then sealed and set up in a 20° C. water bath for real time monitoring on oxygen uptake for 96 hours. pH and ORP values were assessed at the beginning and the end of the tests.

The test system of a further series is biomass. Conditions: endogenous respiration, no added oxygen or substrate; cited from earlier work.

For the molecule `[O]=[Fe](=[O])([O-])[O-]` [ferrate], the “stabilization (SOUR)” value was “no stabilization” in series [1] (1.3% ferrate as the iron dose, buffer, seed and feed in respirometer); “stable biosolids” in series [1] (ferrate dosages 1.2% to 4.9%, not neutralized with buffer (pH higher than 10), acetate and seed added). Also, the “time until SOUR reached below the stable criteria requirement” value was found to be 5 h in series [1] (moisture content 98%) and 9 h in series [1] (moisture content 99%). Besides, the “ORP levels in the biosolids” value in series [2] is given as “around 0.1 V”.
As to `[Cl][Fe]([Cl])[Cl]` [ferric chloride], the “stability of heat-dried biosolids” value in series [1] (1.4% to 1.5% ferric chloride, seeded) is reported as “not stable”; in series [1] (ferric chloride-treated, seed not added), “stable”; in series [1] (with addition of seed, ferric chloride doses less than 2.3%), “not stable”. In addition, in series [1] (1.4% to 1.5% ferric chloride, seeded, for 5 to 10 hours), the SOUR is on record as over 1.5 mg O2/h/g TS. In addition, the “time heat-dried biosolids observed to be stable” value in series [1] (dose larger than 2.3% ferric chloride, seeded) was “at least 2 days”. Also, the “ORP levels in the biosolids” value in series [2] is given as “around 0.1 V”. In addition, the “stimulation of biomass during dosing” value in the series on biomass is given as “did not stimulate the biomass”.
As for `O=S(=O)([O-])[O-].[Fe+2]` [ferrous sulphate], in the series with biomass, the “stimulation of biomass during dosing” value was “did not stimulate the biomass”.

These data come from US9199885B2, “Utilization of iron salts to stabilize and/or disinfect biosolids” (The Administrators of the Tulane Educational Fund, priority 2013, dated 2015).
